Measurements from patent publication US5610171A, “Inhibition of metastasis in patients having cancer with pyridyloxazole-2-ones” (Merrell Pharmaceuticals Inc., priority 1995, dated 1997).
“Also recorded” adds a separate entry of the source.

Legend:
B16F1 cells = test: Colony forming (clonogenic) assay of B16F1 cells; assay type: cell-based, murine; settings: 24 hours
Procedure: One hundred viable cells, as determined by trypan blue exclusion, were plated per 35 mm dish in MEM and incubated for 24 hours at 37° C. Next, 4-propyl-5(4-pyridinyl)-2(3H)-oxazolone was added and incubation continued for an additional 24 hours, after which the dishes were washed twice with Hank's Balanced Salt Solution (HBSS) and replenished with MEM. Ten days later, colonies with a diameter of 2 mm or greater were counted.
B16F1 cells (10^2) were plated and incubated for 24
hours at 37° C. Next, 4-propyl-5(4-pyridinyl)-2(3H)-
oxazolone (compound 1) was added and incubation continued
for an additional 24 hours at which time the drug was
removed. Ten days later, colonies greater than 2 mm in […]

collagen IV = test: Adhesion of B16F1 cells to collagen IV; assay type: cell-based; settings: 24 hours
Procedure: (§1) Adhesion of B16F1 Cells to Basement Membrane Proteins
(§2) Adhesion proteins (2 μg/well) were coated onto Immulon I Removawells from Dynatech and incubated for 1 hour at 37° C. The wells were then blocked for 1 hour with 400 μl PBS, pH 7.2 containing 1% bovine serum albumin (BSA) at 37° C. Prior to addition of the cell suspension, the blocking solution was aspirated.
(§3) Sub-confluent cells were washed twice with HBSS and removed form flasks by incubation for 10 minutes at 37° C. with PBS (pH 7.2), 2 mM EDTA, and 1% BSA. The cells were washed twice with MEM containing 20 mM HEPES and 0.1% BSA and resuspended in the same medium to give a cell density of […].
(§4) Cells were added to wells in 50 μl (5×10^4 cells) and incubated at 37° C. The wells were aspirated and washed three times with 400 μl PBS (pH 7.2) containing 0.1% BSA. Wells were detached and counted in 5 ml Beckman Ready Protein. Blanks were not coated with protein but were blocked with BSA as described above.

fibrinogen = test: Adhesion of B16F1 cells to fibrinogen; assay type: cell-based; settings: 24 hours
Procedure: as §1, §2, §3, §4

membrane-associated PKC [1] = test: Inhibition of B16F1 membrane-associated PKC activity; assay type: biochemical, murine; settings: B16F1 membrane fraction
Procedure: (§5) Protein Kinase C Preparation
(§6) Cytostolic and membrane-associated PKC was prepared as described in Thomas, T. P., Gopalakrishna, R. and Anderson, W. B. Hormone- and tumor promoter-induced activation of membrane association of protein kinase C in intact cells, Methodsin Enzymology, 141: 399-411, 1987. Sub-confluent B16F1 cultures (4×10^7 cells total) were washed twice with phosphate buffered saline (PBS), pH 7.2 and then twice with buffer A (20 mM Tris, pH 7.5, 2 mM EDTA, 0.5 mM EGTA, […], 2 mM phenylmethylsulfonyl fluoride (PMSF), and 2 μg/ml leupeptin). Cells were scraped from the plates in buffer A, homogenized (40 strokes) and sedimented by centrifugation for 1 hour at 100,000 g. The cytosol was stored on ice while the particulate fraction was washed with buffer B (20 mM Tris, pH 7.2, 2 mM EDTA, 0.5 mM EGTA, and 2 mM (PMSF). The membranes were resuspended with buffer B and homogenized with 10 strokes. Nonidet P-40 (1% final concentration) was added and the mixture was incubated for 30 minutes at 4° C. in a rotating mixer. Nonsolubilized material was removed by centrifugation for 10 minutes at 1400 g. Cytostolic and membrane-bound PKC was partially purified by chromatography over 1 ml columns of DE-52 (Whatman) equilibrated with buffer B. The enzyme was applied to the column and washed with 2×3 ml buffer B. Elution of PKC was then effected by the addition of 2 ml buffer B containing 100 mM NaCl.
(§7) PKC was quantitated as described in Thomas et al., ibid. The assay contained 20 mM Tris (pH 7.5), 0.75 mM CaCl, 10 mM magnesium acetate, […] histone III-S, 0.25 μg/ml leupeptin, 100 μM [gamma-^32 p]-ATP (120 cpm/pmol), 0.96 μg/ml phosphatidylserine, and 0.0064 μg/ml 1,2-diolein in a total assay volume of 250 μl. Blanks contained no calcium or phospholipids. Incubation was for 5 minutes at 30° C. at which point the reaction was terminated by the addition of 1 ml 25% trichloroacetic acid (TCA). Samples were applied to Whatman GF/B filters, the tube rinsed twice with 5% TCA and the filter then washed 5 times with 5% TCA.

cytosolic PKC = test: PKC activity in cytosol of pretreated B16F1 cells; assay type: cell-based, murine; settings: 24 hours
Procedure: as §5, §6
as §7, with “Samples were applied to Whatman GF/B filters, the tube rinsed twice with 5% TCA and the filter then washed 5 times with 5% TCA.” left out
(§8) then prepared and its activity was measured as described in […]

laminin = test: Adhesion of B16F1 cells to laminin; assay type: cell-based; settings: 24 hours
Procedure: as §1, §2, §3, §4

membrane-associated PKC [2] = test: PKC activity in membranes of pretreated B16F1 cells; assay type: cell-based, murine; settings: 24 hours
Procedure: as §5, §6, §7
B16F1 cells were incubated with 4-propyl-5(4-
pyridinyl)-2(3H)-oxazolone for 24 hours at 37° C. PKC was
as §8

[3] = test system: extracellular matrix/basement membrane proteins; test: Adhesion of B16F1 cells to extracellular matrix/basement membrane proteins; assay type: cell-based, murine
Procedure: as §1, §2, §3, §4

CCCc1[nH]c(=O)oc1-c1ccncc1 [Compound 1, 4-propyl-5(4-pyridinyl)-2(3H)-oxazolone]
Colonies per dish, Mean +/- SE (B16F1 cells; 10 μM): 27 +/- 2 colonies per dish
Colonies per dish, Mean +/- SE (B16F1 cells; 20 μM): 34 +/- 1 colonies per dish
Colonies per dish, Mean +/- SE (B16F1 cells; 50 μM): 29 +/- 1 colonies per dish
viability of treated cells (clonogenic assay) (B16F1 cells): equivalent to untreated cells
adhesion to collagen IV (collagen IV): most sensitive to inhibition
adhesion to fibrinogen (fibrinogen): most sensitive to inhibition
IC50 (membrane-associated PKC [1]): 13 µM
PKC Activity, cytosol (cytosolic PKC; 5 μM): 7305 pmol per min per mg protein
PKC Activity, cytosol (cytosolic PKC; 25 μM): 2485 pmol per min per mg protein
PKC Activity, cytosol (cytosolic PKC; 50 μM): 3658 pmol per min per mg protein
adherence to laminin (laminin): inhibited minimally or not at all
PKC Activity Ratio membrane/cytosol (membrane-associated PKC [2]; 5 μM): 0.29
PKC Activity, membrane (membrane-associated PKC [2]; 5 μM): 2151 pmol per min per mg protein
PKC Activity Ratio membrane/cytosol (membrane-associated PKC [2]; 25 μM): 0.61
PKC Activity, membrane (membrane-associated PKC [2]; 25 μM): 1511 pmol per min per mg protein
PKC Activity Ratio membrane/cytosol (membrane-associated PKC [2]; 50 μM): 0.27
PKC Activity, membrane (membrane-associated PKC [2]; 50 μM): 1000 pmol per min per mg protein
attachment to extracellular matrix/basement membrane proteins ([3]; 24 hours): decreased adhesion to some basement membrane proteins; also recorded: less adherent than untreated cells
potency for inhibition of adhesion relative to H-7 ([3]; versus H-7): more potent than H-7
potency for inhibition of adhesion relative to staurosporine ([3]; versus staurosporine): significantly less potent than staurosporine
